Experimental data reported in patent US11013745B2, “Triazolopyrimidine, triazolopyridine compounds, and the composition thereof for treating PRC2-mediated diseases” (SHANGHAI INSTITUTE OF MATERIA MEDICA, CHINESE ACADEMY OF …, priority 2017, dated 2021).
Where two headings read alike, the source gives them in different places.

Experiments:
[1] = Liver microsomal stability (mouse); type: in vitro ADME
[2] = Liver microsomal stability (human); type: in vitro ADME
Procedure: (§1) 1. JANUS and temperature control device was turned on. After being initialized, the pipes were flushed until there was no air bubble in the pipes.
(§2) 2. Preparation of buffers used for the experiment
(§3) Preparation of Tris pH 7.4 buffer (0.1 M): 12.12 g of Tris was dissolved in 1000 mL of H2O, the resulting solution was adjusted to pH 7.4 with 2N HCl, aliquoted at 50 mL per tube, and stored at −20° C.
(§4) Preparation of H2O/0.1% BSA buffer: 200 μL of 25% BSA was added to 50 mL of H2O.
(§5) Preparation of VIVID stock solution: 1 mg of VIVID was dissolved in 1 mL of acetonitrile, aliquoted at 50 μL per tube, and stored at −20° C.
(§6) Preparation of MgCl2 solution (100 mM): 1.016 g of MgCl2 was dissolved in 50 mL Tris pH 7.4 buffer, and aliquoted at 1 mL per tube, and stored at −20° C.
(§7) Preparation of NADPH solution (10 mM): 355 mg of NADPH was dissolved in 42.6 mL of Tris pH 7.4 buffer, aliquoted at 1.8 mL per tube, and stored at −20° C.
(§8) Preparation of Blank control: 7.937 mL of Tris, 163 μL of RLM, 450 μL of MgCl2 solution, 450 μL of NADPH solution and 9 mL of methanol were mixed uniformly, aliquoted at 1 mL per tube, and stored at −20° C.
(§9) 3. Preparation of Compound Working Solution
(§10) Dilution step 1:10 μL of compound stock solution was added to 90 μL of DMSO=1 mM stock solution.
(§11) Dilution step 2: 2 μL of 1 mM stock solution was added to 1 mL of H2O/0.1%6 BSA buffer=[…] working solution.
(§12) Dilution step 3: 245 μL of the working solution was added to a 96-well compound plate and added with 5 μL of VIVID stock solution.
(§13) The 96-well compound plate was shaken on a shaker for 5 min.
(§14) 4. The STM in the JANUS in the computer was open to run the EXCEL file, and the JANUS program was operated and run by following the instructions in the EXCEL file.
(§15) 5. After the JANUS program was finished, acetonitrile/water 50:50 (V/V) was added to column 20 of the 384-well black plate, and blank control was added to column 21 of the 384-well black plate.
(§16) 6. the plate (420 nm-465 nm) was read on a microplate reader to determine the VIVID fluorescence intensity.
(§17) 7. After the plate was sealed, shaken and centrifuged, the sample plate was subjected to the LC/MS instrument for sample analysis.
(§18) A profile of the logarithmic value of the remaining rate of the drug in the incubation system versus the incubation time was plotted, and the slope k was obtained by linear regression. The intrinsic clearance rate in vivo (Clint, mL/min/g) value, the clearance rate in vivo (Cl, mL)/min), liver clearance (Clhep, mL/min) and metabolic bioavailability (% MF) were predicted according to the following equations: […]

[3] = Liver microsomal stability (rat); type: in vitro ADME
Procedure: as §1, §2, §3, §4, §5, §6, §7, §8, §9, §10, §11, §12, §13, §14, §15, §16, §17, §18

[4] = test system: Pfeiffer cells; assay: Pfeiffer cell growth inhibition in a long term (11 days), CellTiter-Glo; type: cell-based, Human; details: Homo sapiens, 264 h, 11 days, read-out: Experiment on Pfeiffer cell growth inhibition in a long term (11 days IC50)
Procedure: Pfeiffer cells in exponential growth phase were seeded in a 24-well plate with a cell density of 1*10E5 cells/mL. Cells were treated on the same day with the compounds at different concentrations. At day 4 and day 7 of compound treatment, fresh media and compounds were changed. After treated with the compounds for 11 days, cell viability was measured using CellTiter-Glo reagent (Promega Corporation). The data was analyzed using GraphPad Prism 5.0 software and GI50 values were obtained.

[5] = biological target: PRC2 enzyme (Homo sapiens (Human), UniProt O75530); assay: PRC2 enzyme activity, TR-FRET method; type: biochemical
Procedure: The TR-FRET method was used to measure the PRC2 enzyme activity. First, the enzyme was mixed with compounds at different concentrations and incubated for 30 min at room temperature. The biotin-labeled histone H3 peptide substrate and the cofactor S-adenosylmethionine (SAM) were added to initiate the enzymatic reaction. After reaction was performed at room temperature for 4 hour, Acceptor and Donor were added and incubated for half an hour. The multifunctional microplate reader EnVision (Perkin Elmer Inc.) was used to detect the fluorescence signal. Data were analyzed using GraphPad Prism 5.0 software, and IC50 values were obtained.

[6] = test system: Pfeiffer cells; assay: Growth inhibition of Pfeiffer cells in a long term (14 days), CellTiter-Glo; type: cell-based, Human; details: Homo sapiens, 336 h, 14 days, read-out: Pfeiffer (14 days) IC50
Procedure: In a CO2 cell incubator (37° C., 5% CO2), Human diffuse large B-cell lymphoma (DLBCL) cell line, pfeiffer (obtained from ATCC, CRL-2632) were incubated with RPMI 1640 medium (Gibco, purchased from Life Technologies, 22400-089) containing 10% fetal bovine serum (Gibco, purchased from Life Technologies, 10099-141) and 1% antibiotics (penicillin and streptomycin, purchased from Life Technologies, 10378016). […] After seeding the cells, they were placed in a CO2 incubator and allowed to stand for 1 hour. In a 24-well plate containing cells, 2 μL of three-fold gradient of the compounds at 9 different concentrations or DMSO were added to each well, such that the final concentration of the compounds was 0.003-20 μM or 0.3-2000 nM, and the final concentration of DMSO was 0.2%. At day 4, day 7, and day 11 of compound treatment, the fresh medium and compounds were changed, and the cell density of the DMSO control well was diluted to 2*10E5 cells/mL. The cell dilution ratio for other compound wells was the same as that of the DMSO control well. Cell viability was determined by using CellTiter-Glo reagent (purchased from Promega Inc., G7572): cells treated with the compounds for 14 days were transferred to a white 384-well plate (OptiPlate-384, purchased from PerkinElmer, 6007299) at 40 μL/well, an equal volume of CellTiter-Glo reagent was further added. After incubating at room temperature for 10 min, the cold luminescence signal was detected with a multifunctional microplate reader EnVision (PerkinElmer) at a wavelength of 400 to 700 nm. Data were analyzed using GraphPad Prism 5.0 software, and IC50 values were obtained.

[7] = test system: Karpas-422 cells; assay: Growth inhibition of Karpas-422 cells in a long term (11 days), CellTiter-Glo; type: cell-based, Human; details: Homo sapiens, 264 h; Karpas-422, 11 days; read-out: Karpas-422 (11 days) IC50
[8] = mouse, liver microsomes, pH 7.4, mouse liver microsomes, read-out: Half life T-half
[9] = human, liver microsomes, pH 7.4, human liver microsomes, read-out: Half life T-half
[10] = human, liver microsomes, pH 7.4, human liver microsomes, read-out: Metabolic bioavailability MF %
[11] = rat, liver microsomes, pH 7.4, rat liver microsomes, read-out: Half life T-half

Sequence of PRC2 enzyme (O75530 whole entry): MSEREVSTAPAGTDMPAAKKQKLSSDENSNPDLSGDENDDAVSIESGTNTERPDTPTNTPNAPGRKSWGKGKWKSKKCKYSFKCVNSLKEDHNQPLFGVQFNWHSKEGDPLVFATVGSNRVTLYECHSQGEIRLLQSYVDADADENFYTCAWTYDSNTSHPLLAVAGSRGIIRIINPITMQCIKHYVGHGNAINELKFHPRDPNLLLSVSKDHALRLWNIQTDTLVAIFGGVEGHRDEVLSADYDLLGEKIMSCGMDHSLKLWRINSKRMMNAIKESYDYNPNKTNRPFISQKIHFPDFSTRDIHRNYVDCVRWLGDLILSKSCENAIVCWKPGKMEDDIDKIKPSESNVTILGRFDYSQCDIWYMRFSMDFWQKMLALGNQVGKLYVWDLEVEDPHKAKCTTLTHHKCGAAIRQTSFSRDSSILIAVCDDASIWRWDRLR
Sequence of PRC2 enzyme (Q15910 whole entry partner): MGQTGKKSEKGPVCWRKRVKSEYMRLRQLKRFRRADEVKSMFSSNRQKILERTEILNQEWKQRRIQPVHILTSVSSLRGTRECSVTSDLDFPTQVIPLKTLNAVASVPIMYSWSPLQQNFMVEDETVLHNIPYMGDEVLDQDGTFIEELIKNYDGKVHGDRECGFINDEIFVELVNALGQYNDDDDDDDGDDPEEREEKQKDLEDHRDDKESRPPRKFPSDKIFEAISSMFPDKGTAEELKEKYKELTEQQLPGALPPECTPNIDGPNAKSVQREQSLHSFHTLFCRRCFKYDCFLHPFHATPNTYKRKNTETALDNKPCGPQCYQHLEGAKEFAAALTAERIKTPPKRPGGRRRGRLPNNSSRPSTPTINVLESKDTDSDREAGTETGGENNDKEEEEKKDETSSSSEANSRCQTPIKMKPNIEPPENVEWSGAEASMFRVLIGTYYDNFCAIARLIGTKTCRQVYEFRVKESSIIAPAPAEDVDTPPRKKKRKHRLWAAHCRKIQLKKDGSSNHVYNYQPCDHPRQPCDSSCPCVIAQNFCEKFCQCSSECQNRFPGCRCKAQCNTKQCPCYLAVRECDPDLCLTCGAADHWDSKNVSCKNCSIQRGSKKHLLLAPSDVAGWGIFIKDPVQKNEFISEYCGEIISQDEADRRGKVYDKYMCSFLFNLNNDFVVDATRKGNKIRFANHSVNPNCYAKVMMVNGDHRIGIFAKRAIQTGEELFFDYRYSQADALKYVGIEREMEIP
Sequence of PRC2 enzyme (Q15022 whole entry partner): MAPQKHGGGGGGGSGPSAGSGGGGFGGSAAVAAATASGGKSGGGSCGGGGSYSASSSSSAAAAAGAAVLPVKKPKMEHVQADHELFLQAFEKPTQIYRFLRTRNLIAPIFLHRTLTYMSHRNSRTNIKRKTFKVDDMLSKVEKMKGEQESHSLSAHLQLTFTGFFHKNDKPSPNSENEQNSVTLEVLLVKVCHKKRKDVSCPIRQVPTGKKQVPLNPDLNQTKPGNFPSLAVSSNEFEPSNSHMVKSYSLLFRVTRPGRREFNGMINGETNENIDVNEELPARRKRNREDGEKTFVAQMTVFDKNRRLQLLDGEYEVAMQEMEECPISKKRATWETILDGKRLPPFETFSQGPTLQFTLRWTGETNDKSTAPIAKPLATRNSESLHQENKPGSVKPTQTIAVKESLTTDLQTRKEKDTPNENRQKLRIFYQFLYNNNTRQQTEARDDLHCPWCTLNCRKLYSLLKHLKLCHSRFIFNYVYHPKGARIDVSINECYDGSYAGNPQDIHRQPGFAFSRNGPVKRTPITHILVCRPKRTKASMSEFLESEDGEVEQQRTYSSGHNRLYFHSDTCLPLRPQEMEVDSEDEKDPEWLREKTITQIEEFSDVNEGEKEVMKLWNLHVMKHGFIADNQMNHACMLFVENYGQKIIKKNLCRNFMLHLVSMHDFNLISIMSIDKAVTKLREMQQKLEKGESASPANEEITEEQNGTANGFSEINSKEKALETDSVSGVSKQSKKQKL

O=C(CN1CCOCC1)N1CC=C(c2cnc(NCc3c(F)ccc4c3CCO4)n3cnnc23)CC1 [E-Y40]
Clearance rate in vivo Clint In Vivo Extpl ([1]; mouse liver microsomes): 23.2 mL/min
Intrinsic clearance rate in vivo Clint In Vitro ([1]; mouse liver microsomes): 344 mL/min/gprot
Liver clearance rate Clint Hep In Vivo Extpl ([1]; mouse liver microsomes): 2.66 mL/min
Metabolic bioavailability MF % ([1]; mouse liver microsomes): 11.4%
half-life [1, 8]: 0.102 h
Clearance rate in vivo Clint In Vivo Extpl ([2]; human liver microsomes): 2522 mL/min
Intrinsic clearance rate in vivo Clint In Vitro ([2]; human liver microsomes): 33.0 mL/min/gprot
Liver clearance rate Clint Hep In Vivo Extpl ([2]; human liver microsomes): 941 mL/min
half-life [2, 9]: 1.06 h
bioavailability [2, 10]: 37.3%
Clearance rate in vivo Clint In Vivo Extpl ([3]; rat liver microsomes): 59.6 mL/min
Intrinsic clearance rate in vivo Clint In Vitro ([3]; rat liver microsomes): 133 mL/min/gprot
Liver clearance rate Clint Hep In Vivo Extpl ([3]; rat liver microsomes): 15.0 mL/min
Metabolic bioavailability MF % ([3]; rat liver microsomes): 25.1%
half-life [3, 11]: 0.265 h
IC50 [4]: 5.4 nM
IC50 [5]: 16.1 nM

Cc1cc(C(=O)N2CC=C(c3cnc(NCc4c(F)ccc5c4CCO5)n4cnnc34)CC2)n(C)n1 [E-Y42]
IC50 [6]: 1.5 nM
IC50 [7]: 10 nM
IC50 [4]: 3.6 nM
IC50 [5]: 4.8 nM

O=C(C1CCOCC1)N1CC=C(c2cnc(NCc3c(F)ccc4c3CCO4)n3cnnc23)CC1 [E-Y43]
Clearance rate in vivo Clint In Vivo Extpl ([1]; mouse liver microsomes): 10.9 mL/min
Intrinsic clearance rate in vivo Clint In Vitro ([1]; mouse liver microsomes): 161 mL/min/gprot
Liver clearance rate Clint Hep In Vivo Extpl ([1]; mouse liver microsomes): 2.35 mL/min
Metabolic bioavailability MF % ([1]; mouse liver microsomes): 21.6%
half-life [1, 8]: 0.217 h
Clearance rate in vivo Clint In Vivo Extpl ([2]; human liver microsomes): 1464 mL/min
Intrinsic clearance rate in vivo Clint In Vitro ([2]; human liver microsomes): 19.1 mL/min/gprot
Liver clearance rate Clint Hep In Vivo Extpl ([2]; human liver microsomes): 741 mL/min
half-life [2, 9]: 1.83 h
bioavailability [2, 10]: 50.6%
Clearance rate in vivo Clint In Vivo Extpl ([3]; rat liver microsomes): 44.8 mL/min
Intrinsic clearance rate in vivo Clint In Vitro ([3]; rat liver microsomes): 99.6 mL/min/gprot
Liver clearance rate Clint Hep In Vivo Extpl ([3]; rat liver microsomes): 13.8 mL/min
Metabolic bioavailability MF % ([3]; rat liver microsomes): 30.9%
half-life [3, 11]: 0.352 h
IC50 [4]: 3.3 nM
IC50 [5]: 8.5 nM

CC(=O)N1CCC(c2cnc(NCc3c(F)ccc4c3CCO4)n3cnnc23)CC1 [E-Y50]
Clearance rate in vivo Clint In Vivo Extpl ([1]; mouse liver microsomes): 0.921 mL/min
Intrinsic clearance rate in vivo Clint In Vitro ([1]; mouse liver microsomes): 13.6 mL/min/gprot
Liver clearance rate Clint Hep In Vivo Extpl ([1]; mouse liver microsomes): 0.705 mL/min
Metabolic bioavailability MF % ([1]; mouse liver microsomes): 76.5%
half-life [1, 8]: 2.57 h
Clearance rate in vivo Clint In Vivo Extpl ([2]; human liver microsomes): 174 mL/min
Intrinsic clearance rate in vivo Clint In Vitro ([2]; human liver microsomes): 2.28 mL/min/gprot
Liver clearance rate Clint Hep In Vivo Extpl ([2]; human liver microsomes): 156 mL/min
half-life [2, 9]: 15.4 h
bioavailability [2, 10]: 89.6%
Clearance rate in vivo Clint In Vivo Extpl ([3]; rat liver microsomes): 10.9 mL/min
Intrinsic clearance rate in vivo Clint In Vitro ([3]; rat liver microsomes): 24.2 mL/min/gprot
Liver clearance rate Clint Hep In Vivo Extpl ([3]; rat liver microsomes): 7.05 mL/min
Metabolic bioavailability MF % ([3]; rat liver microsomes): 64.8%
half-life [3, 11]: 1.45 h
IC50 [4]: 3.8 nM
IC50 [5]: 5.3 nM

CN1CC=C(c2cnc(NCc3c(F)ccc4c3CCO4)n3cnnc23)CC1 [SL-E23]
Clearance rate in vivo Clint In Vivo Extpl ([1]; mouse, microsomes): 3.67 mL/min
Intrinsic clearance rate in vivo Clint In Vitro ([1]; mouse, microsomes): 54.4 mL/min/gprot
Liver clearance rate Clint Hep In Vivo Extpl ([1]; mouse, microsomes): 1.65 mL/min
half-life ([1]; mouse, microsomes, pH 7.4, Half life T-half): 0.643 h
Metabolic bioavailability MF % ([1]; mouse, pH 7.4): 45.0%
IC50 [6]: 2 nM
Clearance rate in vivo Clint In Vivo Extpl ([2]; human, microsomes): 807 mL/min
Intrinsic clearance rate in vivo Clint In Vitro ([2]; human, microsomes): 10.5 mL/min/gprot
Liver clearance rate Clint Hep In Vivo Extpl ([2]; human, microsomes): 525 mL/min
half-life ([2]; human, microsomes, pH 7.4, Half life T-half): 3.32 h
bioavailability ([2]; human, pH 7.4, Metabolic bioavailability MF %): 65%
Clearance rate in vivo Clint In Vivo Extpl ([3]; rat, microsomes): 15.8 mL/min
Intrinsic clearance rate in vivo Clint In Vitro ([3]; rat, microsomes): 35.0 mL/min/gprot
Liver clearance rate Clint Hep In Vivo Extpl ([3]; rat, microsomes): 8.81 mL/min
half-life ([3]; rat, microsomes, pH 7.4, Half life T-half): 1 h
Metabolic bioavailability MF % ([3]; rat, pH 7.4): 55.9%
IC50 [7]: 2.8 nM
IC50 [4]: 7.7 nM
IC50 [5]: 4.7 nM

O=S1(=O)CC=C(c2cnc(NCc3c(F)ccc4c3CCO4)n3cnnc23)CC1 [SL-ZYE-09]
IC50 [6]: 3.2 nM
IC50 [5]: 4.5 nM

CC1C=C(c2cnc(NCc3c(F)ccc4c3CCO4)n3cnnc23)CC(C)O1 (stereo not drawn) [SL-ZYE-24]
IC50 [6]: 6 nM
IC50 [5]: 8.3 nM

Fc1ccc2c(c1CNc1ncc(C3=CCOc4ccccc43)c3nncn13)CCO2 [SL-ZYE-28]
IC50 [6]: 10 nM
IC50 [5]: 22.5 nM

CC1(C)CC(c2cnc(NCc3c(F)ccc4c3CCO4)n3cnnc23)=CCO1 [SL-ZYE-119]
IC50 [6]: 4 nM
IC50 [4]: 8.1 nM
IC50 [5]: 23.3 nM

CCOC(=O)N1CC=C(c2cnc(NCc3c(F)ccc4c3CCO4)n3cnnc23)CC1 [SL-ZYE-148]
IC50 [4]: 1 to 3 nM
IC50 [5]: 4.7 nM

CCC(=O)N1CC=C(c2cnc(NCc3c(F)ccc4c3CCO4)n3cnnc23)CC1 [SL-ZYE-161]
IC50 [4]: 9 to 27 nM
IC50 [5]: 40.8 nM
